Our source for the T/C values is PubChem BioAssay AID292 (DTP/NCI, 2004).

For the experiment, the system named is B6C3F1 mice, ip Sarcoma M5076, median survival T/C. The experiment can be described thus: NCI In Vivo Anticancer Drug Screen. Data for tumor model Sarcoma M5076 (intraperitoneal) in B6C3F1 mice. The conditions noted are these: endpoint: median survival time, higher = longer survival. The method in brief: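 Transplantable tumour in mice; compound-treated vs vehicle-treated groups. Read-out: survival. Value = treated/control ratio.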

[1] abbreviates: dose: 25.0 mg/kg/injection, schedule: Q04DX004 (ip), vehicle: suspension in saline.
Where [2] appears, read: dose: 50.0 mg/kg/injection, schedule: Q04DX004 (ip), vehicle: suspension in saline.
Where [3] appears, read: dose: 100.0 mg/kg/injection, schedule: Q04DX004 (ip), vehicle: suspension in saline.
The mark [4] stands for this setting: dose: 75.0 mg/kg/injection, schedule: Q04DX004 (ip), vehicle: distilled water + Tween-80.
[5] abbreviates: dose: 150.0 mg/kg/injection, schedule: Q04DX004 (ip), vehicle: distilled water + Tween-80.
The mark [6] stands for this setting: dose: 300.0 mg/kg/injection, schedule: Q04DX004 (ip), vehicle: distilled water + Tween-80.
The mark [7] stands for this setting: dose: 50.0 mg/kg/injection, schedule: Q04DX004 (ip), vehicle: distilled water + Tween-80.
Setting [8] is: dose: 100.0 mg/kg/injection, schedule: Q04DX004 (ip), vehicle: distilled water + Tween-80.
The mark [9] stands for this setting: dose: 25.0 mg/kg/injection, schedule: Q04DX004 (ip), vehicle: Klucel (hydroxypropylcellulose) (HPC).
The mark [10] stands for this setting: dose: 50.0 mg/kg/injection, schedule: Q04DX004 (ip), vehicle: Klucel (hydroxypropylcellulose) (HPC).
Where [11] appears, read: dose: 100.0 mg/kg/injection, schedule: Q04DX004 (ip), vehicle: Klucel (hydroxypropylcellulose) (HPC).
Where [12] appears, read: dose: 200.0 mg/kg/injection, schedule: Q04DX004 (ip), vehicle: Klucel (hydroxypropylcellulose) (HPC).

Molecules are shown by their SMILES. “And” between values parts separate entries of the source, which are not always exact repeats. Equal values may be shown once. Inconclusive results and toxic doses are left out.

Regarding `CC(C)[C@](O)(C(=O)OCC1=CC[N+]2([O-])CC[C@@H](O)[C@@H]12)[C@H](C)O` (stereo partly drawn), the T/C reads like this: (dose: 75.0 mg/kg/injection, schedule: Q04DX005 (ip), vehicle: saline) 111 % of control; (dose: 112.5 mg/kg/injection, schedule: Q04DX004 (ip), vehicle: water) 122 % of control; (dose: 150.0 mg/kg/injection, schedule: Q04DX005 (ip), vehicle: saline) 108 % of control; (dose: 225.0 mg/kg/injection, schedule: Q04DX004 (ip), vehicle: water) 150 % of control; (dose: 300.0 mg/kg/injection, schedule: Q04DX005 (ip), vehicle: saline) 153 % of control; (dose: 450.0 mg/kg/injection, schedule: Q04DX004 (ip), vehicle: water) 199 % of control. Further, the T/C was 230 % of control (dose: 600.0 mg/kg/injection, schedule: Q04DX005 (ip), vehicle: saline); 208 % of control (dose: 900.0 mg/kg/injection, schedule: Q04DX004 (ip), vehicle: water); 230 % of control (dose: 1200.0 mg/kg/injection, schedule: Q04DX005 (ip), vehicle: saline); 291 % of control (dose: 1800.0 mg/kg/injection, schedule: Q04DX004 (ip), vehicle: water).
For `CC(CN1CC(=O)NC(=O)C1)N1CC(=O)NC(=O)C1` (stereo not drawn), the T/C reads like this: (dose: 25.0 mg/kg/injection, schedule: Q04DX005 (ip), vehicle: saline with Tween-80) 118 % of control; (dose: 50.0 mg/kg/injection, schedule: Q04DX005 (ip), vehicle: saline with Tween-80) 103 % of control.
`CCN(CC)CCOC(=O)c1cc2cc3cc(C(=O)OCCN(CC)CC)c(=O)oc3c(C)c2oc1=O`: the T/C was 100 % of control (dose: 37.5 mg/kg/injection, schedule: Q04DX004 (ip), vehicle: saline); 92 % of control (dose: 75.0 mg/kg/injection, schedule: Q04DX004 (ip), vehicle: saline); 93 % of control (dose: 150.0 mg/kg/injection, schedule: Q04DX004 (ip), vehicle: saline).
As for `N/C(=N/N=C/c1cc(Br)cc(Br)c1O)NO`, the T/C is 102 % of control under setting [1], 98 % of control under setting [2] and 110 % of control under setting [3].
As to `O=c1[nH]cnc2c1ncn2C1CC2[O][Sn]([c]3ccccc3)([c]3ccccc3)[O]CC2O1` (stereo not drawn), the T/C was 106 % of control (dose: 37.5 mg/kg/injection, schedule: Q04DX004 (ip), vehicle: distilled water + Tween-80); 104 % of control under setting [4]; 101 % of control under setting [5]; 105 % of control under setting [6]; 110 % of control (dose: 600.0 mg/kg/injection, schedule: Q04DX004 (ip), vehicle: distilled water + Tween-80).
For `COC1C(CO)OC(n2c3c(Cl)cccc3c3c4c(c5c6cccc(Cl)c6[nH]c5c32)C(=O)NC4=O)C(O)C1O` (stereo not drawn), the T/C was 113 % of control (dose: 46.75 mg/kg/injection, schedule: Q04DX004 (ip), vehicle: distilled water + Tween-80); 116 % of control under setting [7]; 118 % of control (dose: 93.5 mg/kg/injection, schedule: Q04DX004 (ip), vehicle: distilled water + Tween-80); 117 % of control and 118 % of control under setting [8]; 118 % of control (dose: 200.0 mg/kg/injection, schedule: Q04DX004 (ip), vehicle: distilled water + Tween-80); 108 % of control (dose: 374.0 mg/kg/injection, schedule: Q04DX004 (ip), vehicle: distilled water + Tween-80). For the same molecule, the T/C is, setting by setting: (dose: 748.0 mg/kg/injection, schedule: Q04DX004 (ip), vehicle: distilled water + Tween-80) 115 % of control; (dose: 800.0 mg/kg/injection, schedule: Q04DX004 (ip), vehicle: distilled water + Tween-80) 117 % of control.
In the case of `CC/C(=C(\c1ccccc1)c1ccc(OCCN(C)C)cc1)c1ccccc1`, the T/C (dose: 12.5 mg/kg/injection, schedule: Q04DX004 (ip), vehicle: Klucel (hydroxypropylcellulose) (HPC)) is 101 % of control; the T/C under setting [9] is 107 % of control; the T/C under setting [10] was 89 % of control and 103 % of control.
Consider `CCn1c(-c2ccc(OC(C)=O)cc2)c(C)c2cc(OC(C)=O)ccc21`, for which the T/C is 102 % of control under setting [9], 107 % of control under setting [10], 87 % of control under setting [11] and 90 % of control under setting [12].
On to `O=C(O)CCCCCCCC(=O)O`, for which the T/C reads like this: under setting [4], 111 % of control; under setting [5], 99 % of control; under setting [6], 93 % of control.
Consider `CC(O)C1(O)C(O)CC(OC2c3cc4c(c(O)c3[C@@H]3C[C@@]2(C)OC32C=c3cc[nH]c3=N2)C(=O)c2cccc(O)c2C4=O)OC1C` (stereo partly drawn), for which the T/C (dose: 12.5 mg/kg/injection, schedule: Q04DX004 (ip), vehicle: saline with Tween-80) is 104 % of control; the T/C (dose: 25.0 mg/kg/injection, schedule: Q04DX004 (ip), vehicle: saline with Tween-80) is 104 % of control; the T/C (dose: 50.0 mg/kg/injection, schedule: Q04DX004 (ip), vehicle: saline with Tween-80) was 92 % of control.
For the molecule `Cn1cc(NC(=O)c2cc(NC(=O)c3cc(NC=O)cn3C)cn2C)cc1C(=O)NCCC(=N)N`, the T/C (dose: 12.5 mg/kg/injection, schedule: Q04DX004 (ip), vehicle: water) was 108 % of control; the T/C (dose: 25.0 mg/kg/injection, schedule: Q04DX004 (ip), vehicle: water) was 102 % of control; the T/C (dose: 50.0 mg/kg/injection, schedule: Q04DX004 (ip), vehicle: water) was 105 % of control; the T/C (dose: 100.0 mg/kg/injection, schedule: Q04DX004 (ip), vehicle: water) was 99 % of control.
Consider `O=C(Nc1cccc(NC(=O)c2nn[nH]n2)n1)c1nn[nH]n1`, for which the T/C reads like this: under setting [10], 99 % of control; under setting [11], 102 % of control; under setting [12], 94 % of control.
As for `CN(C)CCNC1=CC(=O)c2ccccc2C1=O`, the T/C under setting [7] is 101 % of control and the T/C under setting [8] is 101 % of control.
`O=C(Nc1ccccc1)C1C(=O)C(=O)N(c2ccccc2)C1=O` (stereo not drawn): the T/C runs as follows: under setting [9], 99 % of control; under setting [10], 90 % of control; under setting [11], 92 % of control; under setting [12], 95 % of control; (dose: 400.0 mg/kg/injection, schedule: Q04DX004 (ip), vehicle: Klucel (hydroxypropylcellulose) (HPC)) 95 % of control.
Take `CC(=O)NCCSSCc1ccccc1CS(=O)O`: the T/C is 96 % of control under setting [1]; 100 % of control under setting [2]; 100 % of control under setting [3]; 101 % of control (dose: 200.0 mg/kg/injection, schedule: Q04DX004 (ip), vehicle: suspension in saline); 99 % of control (dose: 400.0 mg/kg/injection, schedule: Q04DX004 (ip), vehicle: suspension in saline).
